“Also recorded” adds a separate entry of the source. Non-standard residues stand in square brackets, D forms with d.
What was measured:
3T3-L1 adipocytes = assay: cAMP production in 3T3-L1 adipocytes; type: cell-based; conditions: CST 100 nM, ISO 10 μM, 10 min
[1] = tested on: PC-12 neuroendocrine cells; assay: cAMP production in PC-12 cells; type: cell-based; conditions: CST 100 nM, ISO 10 μM, 10 min
CST-KO mice = assay: ITT in insulin resistant CST-KO mice with CST, RI-CST or NSC-177941; type: in vivo; conditions: for insulin sensitivity during ITT: NCD-fed CST-KO mice, insulin 0.4 mU/g BW
Source text: FIG. 16. […] Figures in parentheses indicate number of animals.

[2] = Screening of CST structural analogs for blood pressure reduction; conditions: in vivo
Chk2 protein kinase = Chk2 protein kinase (Homo sapiens, UniProt O96017); conditions: Jobson et al. (9); cited from earlier work
primary adipocytes = assay: Lipolytic glycerol release from primary adipocytes; type: cell-based, mice; conditions: for effect on the lipolytic effect of isoproterenol: adipocytes, with isoproterenol 10 μM
Protocol: Mice were fasted for 12 hr prior to blood draw. Triglycerides (TG) and non-esterified fatty acids (NEFA) were assayed using kits from Wako Diagnostics (Richmond, Va.). Glycerol was assayed using a kit from Sigma (St Louis, Mo.). Media from the explant cultures and mouse serum were analysed for glycerol and NEFA as a measure of lipolysis. ELISA kits were used to determine plasma levels of leptin, adiponectin (Millipore, Billerica, Mass.) and CST (Bachem, Torrance, Calif.). For CST assay, plasma samples and reference standards were passed through mini C18 columns and the flow-through fractions were assayed. The same kits were used for measurements in culture media.
Primary adipocytes were isolated from epididymal fat pads essentially as described (43). Adipose tissues from WT and Chga-KO mice were minced in Krebs-Ringer bicarbonate-Hepes (KRBH) buffer, pH 7.4, containing 10 mM bicarbonate, 30 mM Hepes, 200 nM adenosine, 2.5 mM glucose and 1% fatty-acid-free BSA, and digested for 30-40 min with Type I collagenase (10 mg/g tissue; Invitrogen, Carlsbad, Calif.) with gentle swirling in a 37° C. incubator. The digestion mixture was then filtered through a nylon strainer and centrifuged at 400×g for 1 min. The oily layer (released from broken cells) above floating fat cells was skimmed off, and fat cells were recovered from the top and washed three times with warm KRBH.

HFD-fed Chga-KO mice = assay: Peptide supplementation to HFD-fed Chga-KO mice (insulin sensitivity); type: in vivo; conditions: HFD (60%)-fed Chga-KO mice
Chga-/- mice [3] = conditions: reference (8), cited from earlier work
[4] = reference (8); cited from earlier work
Chga-/- mice [5] = assay: Blood pressure in hypertensive Chga-KO mice; type: in vivo
[6] = tested on: adipose tissue explants from DIO mice; assay: Lipolysis and fatty acid oxidation in adipose explants of DIO mice; type: cell-based
Protocol: (§1) FIG. 8. Lipolysis and fatty acid oxidation in the adipose tissue explants of DIO and Ob/Ob mice after treatment with saline or CST for 16 days. Explants were incubated with saline or leptin (1 μM) for 3 hr and the concentrations of glycerol (A&C) and NEFA (B&D) released into the media from DIO (A&B) and Ob/Ob (C&D) explants were determined as a measure of lipolysis. Homogenates of the explants from DIO (E) and Ob/Ob […] were used to determine their capacity for oxidation of U-^14C-palmitate in response to the treatment with saline, CST, leptin and CST+leptin. The ^14CO2 released was captured and counted as the measure of fatty acid oxidation.
(§2) Adipose tissue explants were prepared as described (42). Epididymal fat pads from 12 hr fasted WT, Chga-KO, DIO and Ob/Ob mice with or without CST treatment were collected in Kreb-Ringer-phosphate (KRP) buffer containing 10 mM Hepes and 0.5% BSA. Tissues were minced to 1-2 mm size and treated with 100 nM CST, 1 μM leptin, or saline for 30 min (for signaling analysis) or 3 hr (for lipolysis and β-oxidation assays). Explants were also treated acutely with CST, leptin, a combination, or saline. At the end, incubation media were saved for analysis of glycerol and fatty acid release. Explants were washed prior to homogenization for immunoblotting and analysis of fatty acid oxidation.
(§3) Oxidation of radiolabeled palmitate in the homogenates of adipose tissue explants as described previously (45). For oxidation studies of cultured cells, HepG2 (hepatocytes) and 3T3-L1 preadipocytes were obtained from ATCC and cultured following supplier's protocol. Confluent 3T3-L1 cultures were differentiated into adipocytes by treating with a cocktail of dexamethasone (100 nM), IBMX ([…]) and insulin (100 nM) for 10 days. Media were then switched to serum-free DMEM with 1% BSA. Hepatocytes were assayed for lipogenesis and fat oxidation in response to CST treatment. Serum-free cultures were treated with CST (100 nM) for 24 hr followed by a 2 hr incubation with U^14C-palmitate (0.5 μCi/ml). Fatty acid oxidation in cells was determined by modifying a published method (46). Specifically, the culture media in 24-well plates were acidified with 10% HClO4 after incubation with the labeled fatty acid and immediately covered with a thick filter paper sheet (cut to size) soaked in 2 N NaOH and placed underneath the plastic lid. The whole plate was sealed with parafilm. After further incubation for 2 hr, the filter paper sheet was marked as circles around the rim of the wells and then the circles were excised. The filter discs were counted to determine the amount of ^14CO2 absorbed in the papers. Cells in the culture wells were lysed in 1 N NaOH and protein content was assayed using Folin's reagent (BioRad, Hercules, Calif.).

[7] = tested on: adipose tissue explants from Ob/Ob mice; assay: Lipolysis and fatty acid oxidation in adipose explants of Ob/Ob mice; type: cell-based
Protocol: as §1, §2, §3

[8] = tested on: STAT3 and AMPK phosphorylation; assay: Stat3 and AMPK signaling in adipose explants from DIO mice; type: cell-based; conditions: CST in vivo, leptin 1 μM ex vivo 30 min
Protocol: (§4) FIG. 9. Stat3 and AMPK signaling in the adipose tissue explants from DIO and Ob/Ob mice treated with saline, CST (in vivo) and leptin (ex vivo). Explants from DIO mice (A&B) and Ob/Ob mice (C&D) were incubated with saline or leptin (1 μM) for 30 min, homogenized and immunoblotted for phospho- and total Stat3 (A&C) as well as phospho- and total AMPK signals (B&D). Results are presented as the ratio of signal strength of phospho-over total.
as §2
(§5) Adipose tissue explants after treatments ex vivo and tissues from mice treated in vivo were homogenized in a buffer containing phosphatase and protease inhibitors (20 mM Tris/HCl (pH 7.5), 250 mM sucrose, 2 mM EDTA, 2 mM EGTA, 2 mM Na3VO4, 10 mM NaF, 2 mM Na4P2O7, 1 mM phenylmethylsulfonyl fluoride, 20 μg/ml leupeptin, 10 μg/ml aprotinin, and 1 μM LR-microcystin) as described (38,44). Homogenates were subjected to SDS-PAGE and immunoblotted. Primary antibodies for AMPK and Stat3 were from Cell Signaling Technology (Beverly, Mass.). The chemiluminescence kit was from Pierce (Rockford, Ill.).

[9] = tested on: AMPK and Stat3 phosphorylation; assay: AMPK and Stat3 signaling in adipose tissue explants from Chga-KO mice; type: cell-based; conditions: leptin 1 μM 30 min
Protocol: FIG. 6. Regulation of AMPK and Stat3 signaling by CST in adipose tissue explants. Explants from Chga-KO mice were treated with saline or CST (100 nM for 30 min) and immunoblotted for pAMPK and AMPK (A). Adipose explants from WT and Chga-KO mice were immunoblotted for pAMPK and AMPK after treatment with saline or leptin (1 μM) for 30 min (B). pAMPK and AMPK (C) and pStat3 and Stat3 (D) signaling in adipose explants from WT and Chga-KO mice after treatment for 30 min with saline, CST (100 nM), leptin (1 μM) or leptin plus CST.
as §2, §5

[10] = tested on: STAT3 and AMPK phosphorylation; assay: Stat3 and AMPK signaling in adipose explants from Ob/Ob mice; type: cell-based; conditions: CST in vivo, leptin 1 μM ex vivo 30 min
Protocol: as §4, §2, §5

[11] = CST in vivo 16 days, leptin 1 μM ex vivo 3 hr

Chk2 protein kinase, sequence (O96017 whole entry): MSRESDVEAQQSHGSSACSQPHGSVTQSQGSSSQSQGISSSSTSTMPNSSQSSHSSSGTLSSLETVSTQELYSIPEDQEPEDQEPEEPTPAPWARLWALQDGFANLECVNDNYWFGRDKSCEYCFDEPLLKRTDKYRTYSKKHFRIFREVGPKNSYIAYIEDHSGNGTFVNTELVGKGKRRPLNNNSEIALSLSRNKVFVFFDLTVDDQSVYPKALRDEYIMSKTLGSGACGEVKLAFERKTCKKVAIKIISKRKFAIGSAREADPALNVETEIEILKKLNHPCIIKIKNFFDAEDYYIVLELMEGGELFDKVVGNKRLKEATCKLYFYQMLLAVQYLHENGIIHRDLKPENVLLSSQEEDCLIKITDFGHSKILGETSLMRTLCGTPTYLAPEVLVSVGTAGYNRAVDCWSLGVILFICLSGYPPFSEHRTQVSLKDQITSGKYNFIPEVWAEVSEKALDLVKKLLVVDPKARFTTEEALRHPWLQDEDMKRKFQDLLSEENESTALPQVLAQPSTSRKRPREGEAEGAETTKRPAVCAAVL

CC(C)NCC(O)c1ccc(O)c(O)c1 (racemic) [isoproterenol, (RS)-4-[1-hydroxy-2-(isopropylamino)ethyl]benzene-1,2-diol, reference compound]
cAMP production (3T3-L1 adipocytes): stimulated
cAMP production [1]: stimulated

C/C(=N\N=C(N)N)c1cccc(NC(=S)Nc2cccc(/C(C)=N/N=C(N)N)c2)c1 [NSC-177941, 1,3-bis[3-[(E)-N-(diaminomethyllideneamino)-C-methylcarbonimidoyl]phenyl]thiourea]
effect on insulin sensitivity in the first 30 min (CST-KO mice; ITT in CST-KO mice): ineffective
time window of increase in insulin sensitivity (CST-KO mice; ITT in CST-KO mice): 30 to 90 min
insulin sensitivity during ITT (CST-KO mice): transient increase in insulin sensitivity
insulin sensitivity during ITT (CST-KO mice; listed as NSC-177941): Improvement in insulin sensitivity
blood pressure [2]: reducing blood pressure
inhibition of Chk2 protein kinase activity (Chk2 protein kinase): inactive

Cc1ccc(N(CC2=NCCN2)c2cccc(O)c2)cc1 [phentolamine, 3-[(4,5-dihydro-1H-imidazol-2-ylmethyl)(4-methylphenyl)amino]phenol]
effect on the lipolytic effect of isoproterenol (primary adipocytes): potentiated
glycerol release (lipolysis) (primary adipocytes; primary adipocytes, substance alone): stimulated lipolysis

CNC[C@H](O)c1cccc(O)c1 [phenylephrine, (R)-3-[-1-hydroxy-2-(methylamino)ethyl]phenol]
effect on the lipolytic effect of isoproterenol (primary adipocytes): dampened

PST: anti-insulin CHGA-derived peptide pancreastatin (CHGA250-301) [reference compound]
insulin sensitivity (GTT) (HFD-fed Chga-KO mice): reversed the phenotype

amino-l372qpGpGrfGyararfslkmss352-carboxyl (SEQ ID NO:27) (H-[dL][dQ][dP]G[dP]G[dR][dF]G[dY][dA][dR][dA][dR][dF][dS][dL][dK][dM][dS][dS]-OH; SMILES CSCC[C@@H](NC(=O)[C@@H](CCCCN)NC(=O)[C@@H](CC(C)C)NC(=O)[C@@H](CO)NC(=O)[C@@H](Cc1ccccc1)NC(=O)[C@@H](CCCNC(=N)N)NC(=O)[C@@H](C)NC(=O)[C@@H](CCCNC(=N)N)NC(=O)[C@@H](C)NC(=O)[C@@H](Cc1ccc(O)cc1)NC(=O)CNC(=O)[C@@H](Cc1ccccc1)NC(=O)[C@@H](CCCNC(=N)N)NC(=O)CNC(=O)[C@H]1CCCN1C(=O)CNC(=O)[C@H]1CCCN1C(=O)[C@@H](CCC(N)=O)NC(=O)[C@H](N)CC(C)C)C(=O)N[C@H](CO)C(=O)N[C@H](CO)C(=O)O) [RI-CST, retro-inverso peptide equivalent of human CST]
persistence of the insulin-sensitizing effect (CST-KO mice; ITT in CST-KO mice): persisted throughout the experimental period
insulin sensitivity during ITT (CST-KO mice): increasing sensitivity to insulin; also recorded: Improvement in insulin sensitivity
period of BP suppression (Chga-/- mice [3]; compared to CST): > 8 h
SBP (Chga-/- mice [3]; hypertensive Chga-KO mice): functional in reducing SBP
protease degradation [4]: fairly resistant
interval for which the therapeutic BP effect was sustained (Chga-/- mice [5]; R-I versus W-T isoform): > 8 h
high BP phenotype (Chga-/- mice [5]; monogenic model of hypertension): effective in rescuing (reducing) the high BP phenotype

leptin: adipokine hormone, ligand of leptin receptor (Ob-R)
palmitate oxidation [6]: neither CST nor leptin alone stimulated oxidation
NEFA release in the media [6, 11]: did not stimulate lipolysis
glycerol release in the media [6, 11]: did not stimulate lipolysis
palmitate oxidation [7]: stimulatory for oxidation
lipolysis (glycerol and NEFA release) [7, 11]: stimulated lipolysis
AMPK phosphorylation [8]: did not stimulate
STAT3 phosphorylation [8]: did not stimulate
phosphorylation of AMPK following acute leptin treatment, compared to WT [9]: decreased
phosphorylation of STAT3 following acute leptin treatment, compared to WT [9]: decreased
AMPK phosphorylation [10]: stimulated phosphorylation
STAT3 phosphorylation [10]: stimulated phosphorylation

— patent publication US9572862B2, “Methods for promoting lipolysis and oxidation in liver and adipose tissue using catestatin” (The Regents of the University of California, priority 2012, dated 2017)
